Data set [1] deals with PRA. Here is the method:
PRA was determined with an angiotensin I (^125I) radioimmunoassay kit (DuPont). Plasma Ang II levels were measured by radioimmunoassay as previously described (Phillips and Kimura, 1988).

Data set [2] deals with β2-AR. Briefly: β-AR density in myocardium after ischemia-reperfusion (binding assay). On the set-up: species or system Sprague-Dawley rats. Particulars: rat, in vivo. Here is the method:
Membrane protein was prepared from left ventricles as previously described (Baker and Pitha, 1982). For saturation studies, 100 μg membrane protein was incubated in triplicate with ^125I-(−)iodocyanopindolol (I-CYP, NEN Life Science, 6.25-100 pM) in a total volume of 250 μl containing 50 mM Tris-HCl (pH 7.4), 5 mM MgCl2 at 36° C. for 60 min. The nonspecific and β2-adrenoceptor binding were determined in the presence of 1 μM (±)-alprenolol and […] (RBI), respectively. Then the reaction mixture was passed through Whatman GF/B glass filter using Brandel harvester and the radioactivity was counted for one min.

The subject of data set [3] is plasma Ang II. Briefly: Plasma Ang II radioimmunoassay. Format: in vivo, rat (SHR).
In data set [4] the test system is SHRs. Particulars: Zhang et al., 1999; without causing bradycardia; cited from earlier work.
A short description of data set [5]: Immune response (gel immunodiffusion, C-reactive protein). To be noted: after repeated administration. Format: in vivo, rat (SHR). The source says:
Safety profiles including liver transaminases, hematology, immune response and tissue pathology were investigated during three repeated injections of β1-AS-ODNs for extended periods of time.
C-reactive protein (CRP), a clinical index for immune reaction, was found negative in all animals.

The subject of data set [6] is β2-ARs. Briefly: Quantitative autoradiography of brain, heart and kidney sections. The class given is in vivo, rat (SHR). Here is the method:
(§1) Four days after injection of 1 mg/kg β1-AS-ODN (n=6) or saline (n=6), rats were killed, and tissues were removed and frozen in dry ice. Coronal sections of brain, horizontal sections of heart, and sagittal sections of kidney (20 μm) were cut on a cryostat (Microm, Thornwood, N.Y.) at ^−20° C. and mounted on microscope slides. Every seventh slide was stained with hematoxylin and eosin for histology. Tissue sections were preincubated in Krebs buffer (mmol/L: NaCl 118.4, KCl 4.7, MgSO4 1.2, CaCl2 1.27 and NaH2PO4 10.0, pH 7.1) containing 0.1 mmol/L GTP, 0.1 mmol/L ascorbic acid, and 10 μmol/L PMSF for 30 minutes at 25° C. Sections were then incubated in Krebs buffer containing 0.1 mmol/L ascorbic acid and 10 μmol/L PMSF with 100 pmol/L ICYP at 25° C. for 150 minutes in the presence of 1 μmol/L (^−) propranolol, 100 nmol/L ICI 118,551 ([…]), or 100 nmol/L CGP20712A (β1-selective antagonist) to distinguish nonspecific, β1−, and β2-bindings. Labeled sections were rinsed in the same buffer, followed by two 15-min. washes at 37° C. in the buffer, and rinsed in distilled water at 25° C. (Matthews et al., 1994). Dried sections were then exposed to x-ray films. The images were quantified with a computerized image analysis system (MCID, Imaging Research) and normalized with ^125I standards.
(§2) Four days after injection of 0.5 mg/kg β1-AS-ODN (n=6) or saline (n=6), rats were euthanized, and the right kidneys were removed and frozen in dry ice. Sagittal sections of kidney (20 μm) were cut on a cryostat (Microm) at −20° C. and mounted on microscope slides. Every seventh slide was stained with hematoxylin and eosin for histology. Receptor autoradiography was performed as described (Matthews et al., 1994) with 100 pmol/L ICYP at 25° C. for 150 min. in the presence of 1 μmol/L (−)-propranolol, […] ICI 118,551 (β2-selective antagonist), or 100 nmol/L CGP 20712A (β1-selective antagonist) to distinguish nonspecific, β1, and β2-bindings. The images were quantified with a computerized image analysis system (MCID, Imaging Research) and normalized with ^125I standards.
(§3) Four days after injection of 1 mg/kg β1-AS-ODN (n=6) or saline (n=6), rats were sacrificed and tissues were removed and frozen in dry ice. Coronal sections of brain, horizontal sections of heart and sagittal sections of kidney (20 μm) were cut on a cryostat (Microm) at −20° C. and mounted on microscope slides. Every seventh slide was stained with haematoxylin and eosin for histology. Tissue sections were preincubated in Krebs buffer (NaCl 118.4 mM, KCl 4.7 mM, MgSO4 1.2 mM, CaCl2 1.27 mM, NaH2PO4 10.0 mM, pH 7.1) containing 0.1 mM guanosine triphosphate (GTP), 0.1 mM ascorbic acid and 10 μM phenylmethylsulfonylfluoride (PMSF) for 30 min at 25° C. Sections were then incubated in Krebs buffer containing 0.1 mM ascorbic acid and 10 μM PMSF with 100 pM I-CYP at 25° C. for 150 min, in the presence of 1 μM (−)propranolol, 100 nM IC1118,551 (β2-selective antagonist) or 100 nM CGP20712A (β1-selective antagonist) to distinguish non-specific, β1- and β2-bindings. Labeled sections were rinsed in the same buffer, followed by two 15-min washes at 37° C. in the buffer and rinsed in distilled water at 25° C. (Matthews et al., 1994). Dried sections were then exposed to X-ray films (Kodak Biomax-MR). The images were quantitated with a computerized image analysis system (MCID, Imaging Research) and normalized using ^125I-standards.

For data set [7], the system named is β1-AR. Described as above. The class given is in vivo, rat (SHR). Here is the method:
as §1, §2, §3

Data set [8] deals with SHRs. Format: in vivo, rat (SHR). As to the method:
Each rat cage was placed on a receiver (RLA 1020, Data Sciences, St. Paul, Minn.) for measurement of cardiovascular parameters. Data were collected with a computer-based data acquisition program (Dataquest Lab-PRO3.0; Data Sciences). BP and HR were measured every 10 min. and averaged every 1 to 24 hrs. Before treatment, SHRs were monitored for a week to get a stable baseline.
Each rat cage was placed on a receiver (RLA1020, Data Sciences) for measurement of cardiovascular parameters. Data were collected with a computer-based data acquisition program (Dataquest LabPRO3.0; Data Sciences). BP and HR were measured every 10 min and averaged every 1 to 24 hr. Before treatment, SHR were monitored for a week to get a stable baseline.

The mark [9] stands for this setting: 4 days after i.v. administration.

Where two headings read alike, the source gives them in different places.

Consider “5′-CCGCGCCCATGCCGA-3′ (phosphorothioate backbone, further chemistry not given here) [β1-AS-ODN, 15-mer antisense ODN targeted to the AUG start codon of rat β1-AR mRNA]”, for which the PRA result in data set [1] (day 4) was “not on day 4”; in data set [1] (day 10 and day 18), “significantly decreased”. Moreover, in data set [1] (single injection), the “time after injection until decrease in PRA and Ang II occurred” value is “≈ 10 days”. Also, the “β2-AR density in ischemic-reperfused myocardium” value in data set [2] is reported as “no change”. Also, the “plasma Ang II levels” value is given as “not on day 4” in data set [3] (day 4); “significantly decreased” in data set [3] (day 10 and day 18). For the same substance, in data set [4], the “maximum drop in blood pressure” value is on record as 38 mmHg. For the same substance, in data set [5], the “C-Reactive Protein” value was “negative”. For the same substance, the “Antibody to ODN” value in data set [5] (gel immunodiffusion) is on record as “no detectable antibody”. Also, the “distribution and concentration of β2-subtype in kidney” value in data set [6] (4 days after 0.5 mg/kg) is reported as “remained unchanged”. Besides, the “β2-ARs in any tissues” value in data set [6] (setting [9]) is on record as “not affected”. Besides, the “overall density of β1-subtype in kidney” value in data set [7] (4 days after 0.5 mg/kg, from 23.5±2.1) turned out to be 15.4 ± 3.3 fmol/mg. In addition, the “β1-AR density in renal cortex” value in data set [7] (4 days after i.v. 1 mg/kg, from 26.4±3.1) came to 17.4 ± 3.3 fmol/mg. In data set [7] (4 days after i.v. 1 mg/kg, from 30.2±2.1), the “β1-AR density in cardiac ventricles” value came out at 20.6 ± 2.5 fmol/mg. The “distribution of β-ARs in forebrain and brain stem regions” value in data set [7] (setting [9]) is given as “no detectable changes”. Further, the “duration of antihypertensive effect” value in data set [8] (1 mg/kg, liposomes 1:0.5) stood at 8 days. Moreover, the “maximum drop in mean BP” value in data set [8] (1 mg/kg, liposomes 1:0.5) was 15 mm Hg. Besides, in data set [8] (rat, in vivo), the reflex tachycardia entry is “no reflex tachycardia”.

The values above are taken from patent US6489307B1, “Antisense compositions targeted to β1-adrenoceptor-specific mRNA and methods of use” (University of Florida, priority 1998, dated 2002).
